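Cells were grown in 96-well plates and exposed to each compound for 48 hours at five concentrations; endpoints were interpolated linearly between bracketing concentrations, or set to the highest concentration if not reached. GI50: concentration for 50% inhibition of growth. TGI: total growth inhibition.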
Experiments:
Test in all cases: NCI tumour cell line growth inhibition, 48 h
[1] = tested on: A549 NSCLC
[2] = tested on: ACHN renal
[3] = tested on: K-562 leukemia
[4] = tested on: MDA-MB-231 breast
[5] = tested on: LOX IMVI melanoma
[6] = tested on: EKVX NSCLC
[7] = tested on: COLO 205 colon
[8] = tested on: UACC-257 melanoma
[9] = tested on: NCI-H226 lung
[10] = tested on: OVCAR-5 ovarian
[11] = tested on: HOP-62 NSCLC
[12] = tested on: A498 renal

Compound	GI50 [1]	TGI [1]	GI50 [2]	TGI [2]	GI50 [3]	TGI [3]	GI50 [4]	TGI [4]	GI50 [5]	TGI [5]	GI50 [6]	TGI [6]	GI50 [7]	TGI [7]	TGI [8]	TGI [9]	TGI [10]	TGI [11]	TGI [12]
N#CC(C#N)=CN1CCN(C(=O)c2ccco2)C1=S	13.5 µM	47.7 µM	9.4 µM	50.5 µM	6.57 µM	> 100 µM	2.92 µM	17.3 µM	3.34 µM	> 100 µM	11.9 µM	71.5 µM	16.5 µM	70.5 µM					
O=C(O)C(=C\c1ccc2c(c1)OCO2)/C(=C/c1ccc2c(c1)OCO2)C(=O)O						> 100 µM				> 100 µM				> 100 µM	> 100 µM	> 100 µM	> 100 µM	> 100 µM	> 100 µM
Cc1c(C#N)c2nnn(C)c(=O)n2c1-c1ccccc1		> 100 µM		> 100 µM				> 100 µM				> 100 µM			> 100 µM	> 100 µM	> 100 µM	> 100 µM	> 100 µM

— PubChem BioAssay (NCI)
